The results in this text go back to patent US20220098197A1, “SALTS OF HETEROCYCLIC COMPOUND AND USE THEREOF” (priority 2019, published 2022).

Molecules are shown by their SMILES.

The test system of data set [1] is CS-induced ALI mice. Kind of data set: CS-induced lung injury model: partial pressure of oxygen (PO2). Type of data set: in vivo, Balb/c mice. The conditions noted are these: CT-NA 10 and 30 mg/kg intragastric; 24 hrs after last CS exposure; p<0.01. The procedure:
Specific pathogen-free (SPF) female Balb/c mice (22-28 g; aged 8 weeks) were purchased from Shanghai SIPPR-BK Experimental Animal Co., Ltd. […] Model preparation: The mice were randomly divided into 5 groups (12 mice in each group), which were the control group (the mice were exposed to fresh air), the saline group (the mice were exposed to cigarette smoke), dexamethasone (Dex) group (1 mg/kg) (the mice were exposed to cigarette smoke), CT-NA 10 mg/kg group and CT-NA 30 mg/kg group (the mice were exposed to cigarette smoke). According to the grouping, the mice were intragastrically administered saline, Dex and CT-NA, respectively. Thereafter, the mice were exposed to fresh air or cigarette smoke generated from 3R4F research-grade cigarettes (containing about 600 mg TPM/m^3 and 29.9 mg nicotine/m^3) in a cuboid plastic box (65×50x×45 cm). Ten cigarettes were burned every day for seven days. After one cigarette was burned, the next cigarette was ignited. The daily body weight and general condition of the mice were checked. 24 hrs after the last exposure to the cigarette smoke, the partial pressure of oxygen (PO2) of all mice was measured by the Moor VMS-OXY™ measuring instrument, which was used to measure the oxygenated/deoxygenated hemoglobin concentration and oxygen saturation (percentage) in the microcirculation at the wavelength range of 500 to 650 nm. […]

Data set [2] deals with CS-induced ALI mice. The data set is described as follows: CS-induced lung injury model: in vivo cytokine assay by ELISA in BALF. The arrangement: species or system Balb/c mice. The following applies: p<0.01. The method, then: Model preparation: The mice were randomly divided into 5 groups (12 mice in each group), which were the control group (the mice were exposed to fresh air), the saline group (the mice were exposed to cigarette smoke), dexamethasone (Dex) group (1 mg/kg) (the mice were exposed to cigarette smoke), CT-NA 10 mg/kg group and CT-NA 30 mg/kg group (the mice were exposed to cigarette smoke). According to the grouping, the mice were intragastrically administered saline, Dex and CT-NA, respectively. […] 24 hrs after the last exposure to the cigarette smoke, the partial pressure of oxygen (PO2) of all mice was measured by the Moor VMS-OXY™ measuring instrument, which was used to measure the oxygenated/deoxygenated hemoglobin concentration and oxygen saturation (percentage) in the microcirculation at the wavelength range of 500 to 650 nm. […] The expression levels of pro-inflammatory cytokines (TNF-α, IL-1β, IL-6), chemokines (KC) and anti-inflammatory cytokines (IL-10) in the BALF supernatant were determined using respective ELISA determination kits according to the instruction manual. After the optical density at 450 nm was measured, the expression of cytokines was calculated via the standard curve.

Data set [3] concerns RAW 264.7 macrophages. The data set is described as follows: Cell viability (MTT) assay with CSE/PGD2. The conditions noted are these: 24 hrs. In kind it is cell-based, mouse. The method, then:
The cell lines of RAW 264.7 macrophages and mouse leukemic mononuclear macrophages were purchased from American Type Culture Collection (ATCC, Manassas, Va., USA). RAW 264.7 macrophage was cultured in RPMI-1640 medium containing penicillin (100 U/ml), streptomycin (100 μg/ml) and 10% FBS. The cytotoxicity of CT-NA (0-100 μM) alone, and in a combination of PGD2 (0-100 μM) and CSE (1-10%) on RAW264.7 macrophage was assessed using methylthiazole-tetrazole (MTT) assay according to the manufacturer's protocol. Briefly, RAW 264.7 macrophages were seeded in a 96-well plate at a concentration of 4×10^5 cells/ml for 24 hrs, and then exposed to CT-NA (0-100 μM) at 37° C. for 1 hour. Next, RAW 264.7 macrophages were further exposed to CSE (4%) and PGD2 (10 μM) for 24 hrs, and then treated with MTT (5 mg/ml) at 37° C. for 4 hrs. Then, the supernatant of each well was replaced with DMSO (200 μl/well), and the absorbance at 570 nm was measured.

In the case of `CN([C@@H]1CCc2c(CC(=O)[O-])c3cccnc3n2C1)S(=O)(=O)c1ccc(F)cc1.[Na+]` [Sodium salt hydrate], in data set [1], the “partial pressure of oxygen (PO2)” value was “significantly elevated”. Further, the “CS-induced overexpression of TNF-α, IL-1β, IL-6 and KC in BALF” value in data set [2] (CT-NA 10 and 30 mg/kg intragastric) was “effectively reduced”. Besides, the “CS-induced inhibition of IL-10 in BALF” value in data set [2] (CT-NA treatment) is listed as “reversed”. The “cytotoxicity (MTT), CSE plus CT-NA” value in data set [3] (CSE 4% plus CT-NA up to 100 μM) is on record as “non-toxic”. Also, in data set [3] (PGD2 (10 μM) plus CT-NA up to 100 μM), the “cytotoxicity (MTT), PGD2 plus CT-NA” value was “non-toxic”.
